# Laboratory results published in patent publication US20210403975A1, “PHENOTYPIC ANTIMICROBIAL SUSCEPTIBILITY PROFILING OF UNIDENTIFIED PATHOGENS DIRECTLY FROM PATIENT SAMPLES” (GeneFluidics, Inc., priority 2020, published 2021).
# Like-named read-outs stand apart in the source and are kept apart here.
# What was measured:
# P. aeruginosa ATCC 27853 = experiment: MIC of the strain used in the gentamicin/meropenem checkerboard; type: cell-based; conditions: P. aeruginosa ATCC 27853, FIG. 6A legend
# Procedure: FIG. 6A-C presents a (A) P. aeruginosa ATCC 27853 5×5 checkerboard with gentamicin (MIC: 1 μg/mL) and meropenem (MIC: 0.5 μg/mL). Assay results after 3.5 hours of incubation at 37° C. (B) A 3×3 checkerboard of gentamicin and meropenem on the same P. aeruginosa strain. (C) An exemplary embodiment of a 96-well checkerboard plate for 66 combinations. ABX are gray-scaled with different intensities to represent different concentrations.
# The disclosure provides for the establishment and validation of an automated protocol to assess combinations of two or more antimicrobials to assess antimicrobial susceptibility directly from pediatric patients' specimens during an emergency or unprecedented pandemic. The direct-from-specimen AST protocols discussed above are expanded into a 96-well plate-based checkerboard test to assess 66 preselected combinations of 25 antibiotics as illustrated in FIG. 6C.
# [1] = system: CDC77 (susceptible strain); experiment: Direct-from-specimen AST, GC ratio trend over increasing meropenem concentrations; type: cell-based; conditions: 4-hour antibiotic exposure, meropenem 1 to 64 μg/mL, agrees with CDC AR Bank MIC
# Excerpt: (§1) The direct-from-specimen AST disclosed herein will start with various types of specimens with an unknown concentration of pathogens, from 0 to >10^8 CFU/mL. In order to determine the minimum assay time needed for quantification of RNA transcription at different levels of pathogen concentration, a correlation between the limit of detection (LOD) of the current molecular analysis platform (see FIG. 3 steps 1-17) with the assay turnaround time (TAT) was established (see FIG. 4). […] Target pathogen enrichment and matrix component removal can be carried out by the built-in centrifugal module to achieve lower target LODs with TAT of 42 minutes to 110 minutes. For low-abundance pathogens and early infection diagnostics, additional viability culture steps with TAT of 240 minutes to 330 minutes can be included to achieve an LOD of <10 CFU/mL. The direct-from-specimen AST method disclosed herein will encompass these assay parameters. […] Semi-automatic AST tests directly from whole blood and urine contrived samples were evaluated in FIG. 5 A-C. […]
# (§2) Direct-from-specimen AST Analytical Validation Protocol: (1) The user loads the specimen collection tube into the system, which then (2) scans the bar code to determine specimen type. […] The system incubates enzyme, then performs electrochemical reading and (10) AST reporting.
# CDC69 (resistant strain) = experiment: as above; type: cell-based; conditions: CDC 69; 4-hour antibiotic exposure; meropenem 1 to 64 μg/mL; agrees with CDC AR Bank MIC
# Excerpt: as §1, §2
# [2] = system: CDC Proteus mirabilis (PM) 29; conditions: CDC PM 29; cited from earlier work
# [3] = system: CDC Enterobacter cloacae (EbC) 545; conditions: CDC EbC 545; cited from earlier work
# KP 525 [4] = conditions: cited from earlier work
# CDC 349 E. coli = conditions: cited from earlier work
# CDC KP 522 [5] = conditions: cited from earlier work
# [6] = system: Klebsiella pneumoniae (KP) 138; conditions: cited from earlier work
# [7] = system: Klebsiella pneumoniae (KP) 138; experiment: Preliminary accelerated colistin AST, 2 hours drug-bug exposure; type: cell-based; conditions: 2 hours CST exposure in stripwell, FIG. 8A
# Excerpt: (§3) Direct-from-specimen of HR approach. HR is a poorly characterized phenomenon and the lack of consensus-based standards further complicates the study of antibiotic resistance. In addition, its clinical relevance is uncertain due to a lack of a standardized procedure to be implemented into the current workflow in clinical microbiology laboratories. […] FIG. 8C is the HR testing on the system.
# [8] = system: CDC Enterobacter cloacae (EbC) 545; experiment: as above; type: cell-based; conditions: 2 hours CST exposure in stripwell, FIG. 8A
# Excerpt: as §3
# [9] = system: CDC Proteus mirabilis (PM) 29; experiment: as above; type: cell-based; conditions: CDC PM 29; 2 hours exposure
# Excerpt: as §3
# KP 525 [10] = experiment: as above; type: cell-based, Klebsiella pneumoniae; conditions: colistin 0.25-8 μg/mL, 2 hours exposure
# Excerpt: as §3
# CDC KP 522 [11] = experiment: as above; type: cell-based, Klebsiella pneumoniae; conditions: colistin 0.25-8 μg/mL, 2 hours exposure
# Excerpt: as §3
compound,measurement,setting,value
C[C@@H](O)[C@H]1C(=O)N2C(C(=O)O)=C(S[C@@H]3CN[C@H](C(=O)N(C)C)C3)[C@H](C)[C@H]12 [meropenem],MIC,"P. aeruginosa ATCC 27853; Pseudomonas aeruginosa, ATCC27853, read-out: MIC",0.5 µg/mL
same,MIC reported from trend of GC ratio,[1],< 1 µg/mL
same,MIC reported from trend of GC ratio,CDC69 (resistant strain),8 µg/mL
colistin,MIC (listed),[2],> 4 µg/mL
same,MIC,[3],≤ 0.25 µg/mL
same,MIC,KP 525 [4],> 8 µg/mL
same,MIC,CDC 349 E. coli,2 to 4 µg/mL
same,MIC,CDC KP 522 [5],> 8 µg/mL
same,MIC,[6],2 µg/mL
same,growth response to colistin exposure,[7],clear inhibited growth
same,growth response to colistin exposure,[8],clear inhibited growth
same,susceptibility to colistin relative to other strains tested,[9],least susceptible
same,growth response to colistin exposure,KP 525 [10],not affected
same,growth response to colistin exposure,CDC KP 522 [11],not affected
gentamicin,MIC,P. aeruginosa ATCC 27853,1 µg/mL
